Assay results as given in ChEMBL document CHEMBL5257026, “Progress and prospects on DENV protease inhibitors” (Eur J Med Chem, 2016).

Experiments:
[1] = Inhibition of DENV2 NS2B-G4-S-G4-NS3 protease using Bz-nKRR-AMC as substrate preincubated for 30 mins followed by substrate addition by fluorescence microplate reader assay; set-up: species or system dengue virus type 2
[2] = Inhibition of DENV2 recombinant NS2B-NS3 protease expressed in Escherichia coli JM109 using acetyl-TTSTRR-para-nitroaniline as substrate preincubated for 10 mins followed by substrate addition measured after 120 mins by spectrophotometric analysis; set-up: species or system dengue virus type 2
[3] = Inhibition of DENV2 NS2B-NS3 protease using Boc-Gly-Lys-Arg-AMC as substrate incubated for 30 mins by fluorescence assay; set-up: species or system dengue virus type 2
[4] = Inhibition of DENV2 recombinant NS2B-NS3 protease expressed in Escherichia coli JM109 assessed as inhibition constant using acetyl-TTSTRR-para-nitroaniline as substrate preincubated for 10 mins followed by substrate addition measured after 120 mins by spectrophotometric analysis; set-up: species or system dengue virus type 2
[5] = Inhibition of DENV1 N-terminally hexa-His tagged NS2B (48 to 95 residues) -NS3 (1 to 184 residues) protease expressed in Escherichia coli XL1 Blue using QXL570-Phe-Ala-Ser-Gly-Lys-Arg-Ser-Gln-Ile-Gly-Leu-Lys(5-TAMRA)-NH2 as substrate and measured for 15 mins by FRET assay; set-up: species or system dengue virus type 1
[6] = Inhibition of DENV2 N-terminally hexa-His tagged NS2B (48 to 95 residues) -NS3 (1 to 184 residues) protease expressed in Escherichia coli XL1 Blue using QXL570-Phe-Ala-Ser-Gly-Lys-Arg-Ser-Gln-Ile-Gly-Leu-Lys(5-TAMRA)-NH2 as substrate and measured for 15 mins by FRET assay; set-up: species or system dengue virus type 2
[7] = Inhibition of DENV3 N-terminally hexa-His tagged NS2B (48 to 95 residues) -NS3 (1 to 184 residues) protease expressed in Escherichia coli XL1 Blue using QXL570-Phe-Ala-Ser-Gly-Lys-Arg-Ser-Gln-Ile-Gly-Leu-Lys(5-TAMRA)-NH2 as substrate and measured for 15 mins by FRET assay; set-up: species or system dengue virus type 3
[8] = Inhibition of DENV4 N-terminally hexa-His tagged NS2B (48 to 95 residues) -NS3 (1 to 184 residues) protease expressed in Escherichia coli XL1 Blue using QXL570-Phe-Ala-Ser-Gly-Lys-Arg-Ser-Gln-Ile-Gly-Leu-Lys(5-TAMRA)-NH2 as substrate and measured for 15 mins by FRET assay; set-up: species or system dengue virus type 4
[9] = Inhibition of DENV2 hydrophilic domain of NS2B (48 aminoacids)-NS3 (185 aminoacids) protease using Bz-Nle-Lys-Arg-Arg-AMC as substrate preincubated for 15 mins followed by substrate addition by spectrofluorometeric assay; set-up: species or system dengue virus type 2
[10] = Inhibition of DENV2 recombinant CF40gly(T)R fused NS2B-NS3 protease expressed in Escherichia coli XL1-Blue MRF using Boc-Gly-Arg-Arg-MCA as substrate incubated for 30 mins by fluorescence spectrophotometeric assay; set-up: species or system dengue virus type 2
[11] = Inhibition of DENV2 NS2B-NS3 protease expressed in Escherichia coli BL21 (DE3) using Bz-Nle-Lys-Arg-Arg-AMC as substrate preincubated for 30 mins followed by substrate addition by fluorescence plate reader analysis; set-up: species or system dengue virus type 2

| SMILES | IC50 [5] [µM] | IC50 [6] [µM] | IC50 [7] [µM] | IC50 [8] [µM] | other results |
| --- | --- | --- | --- | --- | --- |
| N#Cc1ccc(OC(=O)c2ccc(NC(=N)N)cc2)cc1 | – | – | – | – | IC50 [1]: 37.9 µM |
| CCN1/C(=C/C=C/c2oc3ccc4ccccc4c3[n+]2CC)Oc2ccc3ccccc3c21 | – | – | – | – | IC50 [2]: 27 µM |
| Cc1cc(=O)cc2oc3cc(N)c(-c4c(C)cc(O)cc4O)c(C)c3nc1-2 | – | – | – | – | Ki [3]: 35 µM |
| N=C(N)Nc1ccc(OC(=O)c2ccc(NC(=N)N)cc2)cc1 | – | – | – | – | IC50 [1]: 7.7 µM |
| Cc1cc(NC(=O)O[C@@H]2C[C@H](Oc3ccc(NC(=N)N)cc3N=C(N)N)[C@@H](N=C(N)N)C[C@H]2N=C(N)N)ccc1F | 2.6 | 7 | 8.2 | 21 | – |
| O=C(Nc1nc2cc(O)c(O)cc2s1)c1ccccc1Sc1ccc(C(F)(F)F)cc1 | – | – | – | – | IC50 [2]: 3.6 µM |
| O=C(Nc1cccs1)c1ccccc1Sc1ccc([N+](=O)[O-])cc1 | – | – | – | – | IC50 [2]: 98 µM |
| N=C(N)Nc1ccc(N[C@H]2C[C@@H](NC(=N)N)[C@H](Oc3ccc(NC(=N)N)cc3)C[C@@H]2Oc2ccc(NC(=N)N)cc2)cc1 | 5.3 | 10 | 4 | 12.4 | – |
| O=C(Nc1nc2ccc([N+](=O)[O-])cc2s1)c1ccccc1Sc1ccc(C(F)(F)F)cc1 | – | – | – | – | IC50 [2]: 22 µM |
| O=C(Nc1nc2ccc([N+](=O)[O-])cc2s1)c1ccccc1Sc1ccc([N+](=O)[O-])cc1 | – | – | – | – | IC50 [2]: 34 µM |
| Oc1c(C(Cc2nccs2)c2ccccc2OCc2ccccc2)ccc2ccccc12 (stereo not given) | – | – | – | – | IC50 [9]: 2.34 µM |
| Oc1c(C(Cc2nccs2)c2cccc(OCc3ccccc3)c2)ccc2ccccc12 (stereo not given) | – | – | – | – | IC50 [9]: 2.93 µM |
| c1ccc([C@H]2Oc3ccccc3[C@@H]3Oc4ccccc4C[C@H]23)cc1 | – | – | – | – | Ki [10]: 510 µM |
| Oc1c(C(Cc2nc3ccccc3s2)c2ccccc2OCc2ccccc2)ccc2ccccc12 (stereo not given) | – | – | – | – | IC50 [9]: 3.67 µM |
| N=C(N)Nc1ccc(O[C@H]2C[C@@H](O)[C@H](NC(=N)N)C[C@@H]2NC(=N)N)c(NC(=N)N)c1 | 9.7 | 15 | 20 | 57 | – |
| c1ccc2[nH]c(-c3ccc(Nc4nnc(Nc5ccc(-c6nc7ccccc7[nH]6)cc5)c5ccccc45)cc3)nc2c1 | – | – | – | – | IC50 [11]: 1.1 µM |

More lines, main results first:

| IC50 [5] [µM] | IC50 [6] [µM] | IC50 [7] [µM] | IC50 [8] [µM] | SMILES | other results |
| --- | --- | --- | --- | --- | --- |
| 3 | 5 | 5 | 11 | N=C(N)Nc1ccc(O[C@H]2C[C@@H](Oc3ccc(NC(=N)N)cc3NC(=N)N)[C@H](NC(=N)N)C[C@@H]2NC(=N)N)c(NC(=N)N)c1 | Ki [4]: 15.4 µM |
| 10.3 | 17 | 18.4 | 69 | N=C(N)Nc1ccc(NC(=O)O[C@H]2C[C@@H](OC(=O)Nc3ccc(NC(=N)N)cc3)[C@H](NC(=N)N)C[C@@H]2NC(=N)N)cc1 | – |
| 5 | 10.9 | 9 | 20 | N=C(N)Nc1ccc(O[C@H]2C[C@@H](Oc3ccc(NC(=N)N)cc3)[C@H](NC(=N)N)C[C@@H]2NC(=N)N)cc1 | – |
| 8.8 | 32 | 17 | 55 | N=C(N)Nc1ccccc1O[C@H]1C[C@@H](Oc2ccccc2NC(=N)N)[C@H](NC(=N)N)C[C@@H]1NC(=N)N | – |
| 8.8 | 20.5 | 17.2 | 53 | N=C(N)Nc1ccc(O[C@H]2C[C@H](F)[C@H](NC(=N)N)C[C@@H]2NC(=N)N)c(NC(=N)N)c1 | – |
| 7.9 | 6 | 8.6 | 34 | N=C(N)Nc1cc(NC(=N)N)c2ccccc2c1O[C@H]1C[C@@H](O)[C@H](NC(=N)N)C[C@@H]1NC(=N)N | – |
